Entries after “also recorded” stand apart in the source; their conditions may differ.
Key:
MKN-45 cells [1] = experiment: Cell cycle distribution assay; type: cell-based, Human; conditions: 48 h; compared with the control group; n = 3
Description: According to the cell cycle detection kit (Keygen) instructions, MKN-45 cells were collected and seeded in a six-well culture plate at the concentration 2 × 10^6/mL overnight. Then, the cells were washed with PBS and treated with peptide CM 7 at the indicated concentration for 48 h. The experiment was performed in triplicate. A MACS Quant flow cytometer (Miltenyi Biotec GmbH, Bergisch Gladbach, Germany) was used to detect the cell cycle profile, and FlowJo software version 7.6 (FlowJo LLC, Ashland, USA) was used to analyze the data.

MDCK cells = experiment: Cell scatter assay (HGF-induced); type: cell-based, canine; conditions: HGF 100 ng/mL, 24 h, 37 °C
Description: MDCK cells were detached from the tissue culture plate and seeded in 96-well plates at the final concentration of 1.5 × 10^3 cells/well overnight. Different concentrations of CM 7 without or with HGF (100 ng/mL) were added to the preset wells. After incubating for 24 h at 37 °C and 5% CO2, 4% paraformaldehyde was used to fix the cells, which were then stained with 0.2% crystal violet. The plates were washed with clean water. When dried, an Olympus IX53 microscope was used to capture the images.

MKN-45 cells [2] = experiment: Wound healing (migration) assay; type: cell-based, Human; conditions: 1% FBS, 48 h, n = 3, dose-dependent
Description: For the wound healing assay, MKN-45 cells (4 × 10^4 cells/well) were seeded in a 48-well culture plate. When the cells were almost completely fused, a sterile 200 μL pipette tip was used to generate a straight wound line across the monolayer cell. Then, the cells were washed with PBS and incubated in RPMI 1640 medium containing 1% FBS with CM 7 or Crizotinib at the indicated concentration for 48 h. The experiment was performed in triplicate, and the cell migration toward the gap was captured using the microscope.

MKN-45 tumor xenografts = experiment: MKN-45 xenograft antitumor activity in nude mice; type: in vivo, Human
Description: Four-to-five-week-old female Balb/c nude mice, housed in specific pathogen-free conditions, were used to evaluate antitumor activity in vivo. All animal studies were performed according to the institutional ethical guidelines for animal care.
MKN-45 cells at a density of 5 × 10^6 in 200 μL were injected subcutaneously into the flank of the mice. CM 7 (5, 10, or 20 mg/kg) was injected subcutaneously for each group twice a day for four weeks. As a positive control, Crizotinib (50 mg/kg) was given to tumor-bearing mice by gavage once a day for a total of 28 days. The tumor volume was measured with calipers in two dimensions: tumor volume = 1/2 × a × b^2, where a is the length of the tumor, and b is the width of the tumor. All of the mice were sacrificed on day 42, and the tumor tissue was isolated and weighed.

## DQIIANN [CM 7, Novel peptide DQIIANN targeting the tyrosine kinase receptor c-Met]
MKN-45 cells [1]
  Cell cycle arrest: significantly arrested in the S phase
MDCK cells; 1 μM
  Inhibition of growth of cell pseudopodia: completely inhibited
MDCK cells; dose-dependent
  Inhibition of HGF-induced cell scattering: moderate regulation; also recorded: remarkably inhibit the HGF-induced cell scattering of MDCK cells in a dose-dependent manner
MKN-45 cells [2]
  Inhibition of cell migration: moderate regulation; also recorded: significantly inhibit cell invasion (Figure 7A,C) and cell migration
MKN-45 tumor xenografts; 20 mg/kg s.c. twice a day, 28 days, n = 5–6
  Inhibition of tumor growth versus vehicle (PBS): significantly inhibited tumor growth
MKN-45 tumor xenografts; CM 7 20 mg/kg s.c. twice a day vs Crizotinib 50 mg/kg by gavage daily, 28 days
  Inhibition of tumor growth relative to Crizotinib: weaker than the positive control group (Crizotinib)
MKN-45 tumor xenografts; xenograft mouse model using MKN-45 cells, dose not printed with the value (5, 10, 20 mg/kg s.c. twice a day tested)
  Growth inhibition rate of tumor masses: 62%

From article PMC7038139, “Novel Peptide CM 7 Targeted c-Met with Antitumor Activity” (Molecules, 2020)
